Assay results published in PubChem BioAssay (NCI).
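Five concentrations, 48 hours, 96-well plates. TGI: concentration producing complete growth inhibition.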

Columns and labels:
Experiment in all cases: inhibition of tumour cell growth, NCI panel, 48 h
HS 578T breast = tested on: HS 578T breast
SF-539 CNS = tested on: SF-539 CNS
NCI/ADR-RES ovarian = tested on: NCI/ADR-RES ovarian
MDA-N = tested on: MDA-N
HOP-92 NSCLC = tested on: HOP-92 NSCLC
SF-295 CNS = tested on: SF-295 CNS
SW-620 colon = tested on: SW-620 colon
UO-31 renal = tested on: UO-31 renal
LOX IMVI melanoma = tested on: LOX IMVI melanoma
COLO 205 colon = tested on: COLO 205 colon
OVCAR-5 ovarian = tested on: OVCAR-5 ovarian
HOP-62 NSCLC = tested on: HOP-62 NSCLC
OVCAR-4 ovarian = tested on: OVCAR-4 ovarian
CAKI-1 renal = tested on: CAKI-1 renal
BT-549 breast = tested on: BT-549 breast
SR leukemia = tested on: SR leukemia
RPMI-8226 leukemia = tested on: RPMI-8226 leukemia

SMILES	TGI (HS 578T breast)	TGI (SF-539 CNS)	TGI (NCI/ADR-RES ovarian)	TGI (MDA-N)	TGI (HOP-92 NSCLC)	TGI (SF-295 CNS)	TGI (SW-620 colon)	TGI (UO-31 renal)	TGI (LOX IMVI melanoma)	TGI (COLO 205 colon)	TGI (OVCAR-5 ovarian)	TGI (HOP-62 NSCLC)	TGI (OVCAR-4 ovarian)	TGI (CAKI-1 renal)	TGI (BT-549 breast)	TGI (SR leukemia)	TGI (RPMI-8226 leukemia)
CO/C(N)=C(\C#N)N=Cc1ccsc1	> 100 µM	> 100 µM	> 100 µM	> 100 µM	> 100 µM	> 100 µM	> 100 µM	> 100 µM	36.7 µM	> 100 µM	> 100 µM	> 100 µM	> 100 µM	> 100 µM	69.7 µM		
COC(=O)/C=C1\C(CO[Si](C)(C)C(C)(C)C)OC(n2ccc(=O)[nH]c2=O)C1O (centres undefined)		30.2 µM	38.4 µM	> 66.4 µM	44 µM	> 100 µM	> 100 µM	29.6 µM	15.5 µM	10.3 µM	50.9 µM	> 31.1 µM	> 100 µM	> 100 µM	> 80.5 µM	26.4 µM	29.4 µM
CC(=O)n1c2ccc(Br)cc2c2nc3ccccc3nc21		> 100 µM	> 100 µM	> 100 µM	> 100 µM	> 100 µM	> 100 µM	> 100 µM	> 100 µM	> 100 µM	> 100 µM	> 100 µM	> 100 µM	> 100 µM	> 100 µM	> 100 µM	> 100 µM
C/C=C1/C=CC2c3[nH]c4ccccc4c3CCN2C1 (centres undefined)		> 400 µM			> 400 µM	> 400 µM	> 400 µM		> 400 µM	> 400 µM		> 400 µM		> 400 µM		> 400 µM	> 400 µM
COC(=O)c1c(C)cccc1C1CN=NC12Cc1cc(C)c(C)cc1C2=O (centres undefined)	> 100 µM	> 100 µM	> 100 µM	99.5 µM	> 100 µM	> 100 µM	> 100 µM	> 100 µM	67.9 µM	> 100 µM	> 100 µM	> 100 µM	> 100 µM	> 100 µM	> 100 µM		
CC(=O)Nc1ccc2c(c1)C(=O)c1ccccc1-2		> 100 µM				> 100 µM	> 100 µM	> 100 µM	> 100 µM	> 100 µM		> 100 µM				> 100 µM	> 100 µM
COC(=O)C1(CCCCl)CCCN1C(=O)OC(C)(C)C (centres undefined)			> 100 µM	> 100 µM		> 100 µM	> 100 µM	> 100 µM	> 100 µM	> 100 µM	> 100 µM	> 100 µM	> 100 µM	> 100 µM	> 100 µM	> 100 µM	
C#CCN(C(=O)C(F)(F)F)C(/C=C\C(=O)OC)(C(=O)OCC)C(=O)OCC	> 100 µM	> 100 µM	> 100 µM	> 100 µM		> 100 µM	> 100 µM	> 100 µM	> 100 µM		> 100 µM	> 100 µM	> 100 µM		> 100 µM		> 100 µM
Cc1nn(C(=O)Cc2ccccc2)c2c1C(c1ccc(/C=C/c3ccccc3)cc1)SC(N)=N2 (centres undefined)	> 100 µM	> 100 µM		> 100 µM		> 100 µM	> 100 µM	> 100 µM	> 100 µM	> 100 µM		> 100 µM		> 100 µM	> 100 µM		> 100 µM
CCOC(=O)C1(C)CCC(C(=O)OC)C1=O (centres undefined)		> 100 µM			> 100 µM	> 100 µM		> 100 µM	32.9 µM	> 100 µM	> 100 µM	> 100 µM	> 100 µM	> 100 µM		51 µM	> 100 µM
O=C(O)c1ccccc1/C=C1\Cc2cc3c(cc2C1=O)CCC3		80.4 µM	66.2 µM	38.9 µM		74.7 µM	60.4 µM	> 100 µM	31.4 µM	44.8 µM	> 100 µM	65.2 µM	85.7 µM		> 100 µM	28.1 µM	55.2 µM
CCN(CC)/[N+]([O-])=N/OS(=O)(=O)N(C)C	> 100 µM	> 100 µM	> 100 µM	> 100 µM	> 100 µM	> 100 µM	> 100 µM		> 100 µM	> 100 µM	> 100 µM	> 100 µM	> 100 µM	> 100 µM		> 100 µM	> 100 µM
COC(=O)N/N=c1\cc(C(=O)Nc2ccc(C)c(C)c2)oc2cc(O)ccc12		> 100 µM			> 100 µM	> 100 µM	> 100 µM	> 100 µM	> 100 µM	> 100 µM	> 100 µM	> 100 µM	> 100 µM	> 100 µM		> 100 µM	
CCOC(=O)c1cn(-c2ccc([N+](=O)[O-])cc2)c(=S)n2c1nc1ccccc12		> 100 µM	> 100 µM	> 100 µM	57.1 µM	> 100 µM	> 100 µM	4.64 µM	> 100 µM	48.5 µM	> 100 µM	> 100 µM	> 100 µM	> 100 µM	> 100 µM	> 100 µM	> 100 µM
c1ccc(C(NC2=NCCO2)C2CC2)cc1 (centres undefined)	> 100 µM	> 100 µM	> 100 µM	> 100 µM	> 100 µM	> 100 µM	> 100 µM	> 100 µM	> 100 µM	> 100 µM	> 100 µM	> 100 µM	> 100 µM			> 100 µM	> 100 µM
O=c1oc2ccccc2c(-c2ccc(O)cc2)c1Oc1ccccc1	18.2 µM	> 75.5 µM	> 100 µM	58.5 µM	26.6 µM	53.6 µM	> 100 µM	32.3 µM	> 31.6 µM	> 69.6 µM	70 µM	> 100 µM	> 56.7 µM	> 75.7 µM		> 100 µM	> 100 µM

SMILES	TGI (HS 578T breast)	TGI (SF-539 CNS)	TGI (NCI/ADR-RES ovarian)	TGI (MDA-N)	TGI (HOP-92 NSCLC)	TGI (SF-295 CNS)	TGI (SW-620 colon)	TGI (UO-31 renal)	TGI (LOX IMVI melanoma)	TGI (COLO 205 colon)	TGI (OVCAR-5 ovarian)	TGI (HOP-62 NSCLC)	TGI (OVCAR-4 ovarian)	TGI (CAKI-1 renal)	TGI (BT-549 breast)	TGI (SR leukemia)	TGI (RPMI-8226 leukemia)
CCOc1ccc(OP2(=O)NC(=O)C=C(C)N2)cc1 (centres undefined)		> 100 µM			> 100 µM	> 100 µM	> 100 µM	> 100 µM	> 100 µM	> 100 µM	> 100 µM	> 100 µM	> 100 µM	> 100 µM		> 100 µM	> 100 µM
CCOC(OCC)(OCC)C(Br)CC (centres undefined)		> 100 µM			> 100 µM	> 100 µM		> 100 µM	> 100 µM	> 100 µM	> 100 µM	> 100 µM	> 100 µM	> 100 µM		49 µM	47.5 µM
CC1OC(OC2C(OC(=O)[C@]34CCC(C)(C)C[C@H]3C3=CC[C@@H]5[C@@]6(C)CC[C@H](OC7OC(CO)C(O)C(O)C7OC7OC(CO)C(O)C(O)C7O)C(C)(C)[C@@H]6CC[C@@]5(C)[C@]3(C)CC4)OCC(O)C2O)C(O)C(O)C1OC1OCC(O)C(O)C1O (some centres undefined)	40.2 µM	> 100 µM	29.1 µM		20.4 µM	25.7 µM	39.4 µM	6.17 µM	37.7 µM	3.28 µM	21.7 µM	30.8 µM	29.5 µM	18.3 µM	23.7 µM	23.8 µM	31.6 µM
CC(=O)Nc1nc2c(=O)c3ccccc3sc2s1	> 100 µM	> 100 µM	> 100 µM	> 100 µM		> 100 µM		> 100 µM		> 100 µM	> 100 µM	> 100 µM		> 100 µM	> 100 µM		> 100 µM
CCN(C(=O)N[C@@H](CC(C)C)C(=O)NCC(=O)OC)c1ccccc1		> 100 µM	> 100 µM	> 100 µM	> 100 µM	> 100 µM	> 100 µM	> 100 µM	> 100 µM	> 100 µM	> 100 µM	> 100 µM	> 100 µM	> 100 µM	> 100 µM	> 100 µM	> 100 µM
Fc1ccc2c(c1)SC1=Nc3sc4cc(F)ccc4[n+]3CN12	38.4 µM	28.3 µM	63.6 µM		51.6 µM	74 µM	> 100 µM	74.3 µM	52.5 µM	> 100 µM	> 100 µM	56.1 µM	72.4 µM	39.3 µM	43.6 µM		8.45 µM
S=c1[nH]nc(Cn2c3ccc(Br)cc3c3nc4ccccc4nc32)o1		> 80.7 µM	> 100 µM	> 100 µM	47 µM	> 100 µM	> 31.6 µM	40.8 µM	> 65.4 µM	> 100 µM	> 100 µM	99.2 µM		> 100 µM	> 100 µM	> 100 µM	6.82 µM
Cc1csc(=Nc2ccccc2)n1CCC(O)(P(=O)(O)O)P(=O)(O)O	> 100 µM	> 100 µM	> 100 µM	> 100 µM		> 100 µM		> 100 µM	> 100 µM	> 100 µM	> 100 µM	> 100 µM		> 100 µM	> 100 µM		
CN(CC(=O)Nc1ccccc1C(=O)O)c1ccccc1	> 100 µM	> 100 µM		> 100 µM	> 100 µM	> 100 µM	> 100 µM	> 100 µM	> 100 µM		> 100 µM	> 100 µM	> 100 µM	> 100 µM	> 100 µM	> 100 µM	> 100 µM
Cc1cc(C=O)c2c(=O)c3c(O)ccc(/C=C/C(C)C)c3oc2c1		> 100 µM			> 100 µM	> 100 µM	> 100 µM	> 100 µM		> 100 µM	> 100 µM	> 100 µM	> 100 µM	> 100 µM		78.2 µM	58.8 µM
CCCCCCC1OC23OC1CCC2C(O)CCC3O (centres undefined)	> 100 µM	> 100 µM	> 100 µM			> 100 µM	> 100 µM	> 100 µM	> 100 µM	> 100 µM	> 100 µM	> 100 µM	> 100 µM	> 100 µM	> 100 µM	> 100 µM	> 100 µM
CN1S(=O)(=O)N(C)P12(N=P(CP(=NP13(N(C)S(=O)(=O)N1C)N(C)S(=O)(=O)N3C)(c1ccccc1)c1ccccc1)(c1ccccc1)c1ccccc1)N(C)S(=O)(=O)N2C		> 100 µM			> 100 µM		> 100 µM	> 100 µM	> 100 µM	> 100 µM	> 100 µM	> 100 µM		> 100 µM			> 100 µM
CS(=O)(=O)CCC1CCC(=O)O1 (centres undefined)	> 100 µM	> 100 µM	> 100 µM		> 100 µM	> 100 µM	> 100 µM	> 100 µM	> 100 µM		> 100 µM	> 100 µM		> 100 µM	> 100 µM	> 100 µM	> 100 µM
COc1cc2c(cc1OCCCOc1cc3c(cc1OC)C(=O)N1CCC[C@H]1C(=O)N3)N=C[C@@H]1CCCN1C2=O	84.4 µM		> 100 µM			46.5 µM	56.5 µM	40.5 µM	18.7 µM	12.1 µM	59.6 µM	> 100 µM	42.4 µM	88.4 µM	83.3 µM	3.71 µM	21.2 µM
COC(=O)C1=C(OC)C(=P2(c3ccccc3)CC(c3ccccc3)=C2c2ccccc2)C(C(=O)OC)=C1C(=O)OC (centres undefined)	> 100 µM	> 95.5 µM	> 100 µM	> 100 µM		> 100 µM	> 100 µM	> 100 µM	> 100 µM	> 50.5 µM	> 100 µM	> 100 µM	> 100 µM	> 93.6 µM	> 100 µM		> 31.2 µM
O=C(NC1CCCCC1)c1n[nH]nc1Cl	> 100 µM	> 100 µM	> 100 µM		> 100 µM	> 100 µM	> 100 µM	> 100 µM	> 100 µM	> 100 µM	> 100 µM	> 100 µM	> 100 µM	> 100 µM	> 100 µM		
